Results taken from ChEMBL document CHEMBL1201862, “PubChem BioAssay data set” (2004).
Activity calls are given as the source filed them.

Tests used:
cells [1] = assay type: functional, cell-based
[2] = target: T1, Trace amine-associated receptor 1 (Homo sapiens, UniProt Q96RJ0); test: Fluorescence-based cell-based high throughput dose response assay to identify agonists of the human trace amine associated receptor 1 (TAAR1).; assay type: functional
T1 sequence (Q96RJ0 whole entry): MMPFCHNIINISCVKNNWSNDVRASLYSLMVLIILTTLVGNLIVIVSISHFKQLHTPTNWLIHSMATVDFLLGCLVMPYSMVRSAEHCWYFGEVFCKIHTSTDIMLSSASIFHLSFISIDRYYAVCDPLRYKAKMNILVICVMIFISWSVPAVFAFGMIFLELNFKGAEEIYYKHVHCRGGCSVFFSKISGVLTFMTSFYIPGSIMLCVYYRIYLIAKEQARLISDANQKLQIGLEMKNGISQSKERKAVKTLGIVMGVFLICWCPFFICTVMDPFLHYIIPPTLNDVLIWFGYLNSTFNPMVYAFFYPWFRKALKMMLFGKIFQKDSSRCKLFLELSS

[3] = target: T1, Trace amine-associated receptor 1; test: Counterscreen for agonists of the human trace amine associated receptor 1 (hTAAR1): Fluorescence-based cell-based high throughput dose response assay to identify hTAAR1 agonist that also desensitize TAAR1 receptor response.; assay type: functional
cells [4] = assay type: functional, cell-based; remark: listed apart in the source
Paired box protein Pax-8 = Paired box protein Pax-8 (Homo sapiens, UniProt Q06710); test: inhibitors of PAX8-driven TPO luciferase reporter, dose response, RMG-I cells, cherry-pick (AID 687027); assay type: functional, cell-based;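 further: luciferase reporter driven by Pax8 target thyroperoxidase promoter measured by SteadyGlo luminescence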
Chain of Paired box protein Pax-8 (Q06710 whole entry): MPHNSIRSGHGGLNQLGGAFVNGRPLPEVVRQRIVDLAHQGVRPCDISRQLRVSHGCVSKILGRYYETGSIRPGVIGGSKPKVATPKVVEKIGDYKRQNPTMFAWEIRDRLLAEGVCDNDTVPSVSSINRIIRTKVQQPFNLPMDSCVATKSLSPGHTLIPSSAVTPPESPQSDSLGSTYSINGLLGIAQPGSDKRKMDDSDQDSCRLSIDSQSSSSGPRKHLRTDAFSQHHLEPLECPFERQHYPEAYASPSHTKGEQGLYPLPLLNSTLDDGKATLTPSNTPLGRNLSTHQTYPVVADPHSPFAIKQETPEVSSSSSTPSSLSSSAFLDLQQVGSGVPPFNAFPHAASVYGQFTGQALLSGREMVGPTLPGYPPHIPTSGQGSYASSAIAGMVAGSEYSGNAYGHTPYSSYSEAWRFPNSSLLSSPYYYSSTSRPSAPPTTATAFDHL

[5] = A2780 ovarian cancer cell cytotoxicity, dose response, cytotoxicity control, plate reader, dry powder samples (AID 743046); assay type: functional, cell-based
[6] = NIH:OVCAR-3 ovarian cancer cell cytotoxicity, dose response, PAX8 inhibitor project, plate reader, dry powder samples (AID 743044); assay type: functional, cell-based
[7] = IGROV1 ovarian cancer cell cytotoxicity, dose response, PAX8 inhibitor project, plate reader, dry powder samples (AID 743043); assay type: functional, cell-based; conditions: IGROV-1
Beta-galactosidase = Beta-galactosidase (Escherichia coli, UniProt Q8VNN2); test: Dose response counterscreen for EBI2 assay utilizing the enzyme, b-galactosidase.; assay type: functional
Chain of Beta-galactosidase (Q8VNN2 whole entry): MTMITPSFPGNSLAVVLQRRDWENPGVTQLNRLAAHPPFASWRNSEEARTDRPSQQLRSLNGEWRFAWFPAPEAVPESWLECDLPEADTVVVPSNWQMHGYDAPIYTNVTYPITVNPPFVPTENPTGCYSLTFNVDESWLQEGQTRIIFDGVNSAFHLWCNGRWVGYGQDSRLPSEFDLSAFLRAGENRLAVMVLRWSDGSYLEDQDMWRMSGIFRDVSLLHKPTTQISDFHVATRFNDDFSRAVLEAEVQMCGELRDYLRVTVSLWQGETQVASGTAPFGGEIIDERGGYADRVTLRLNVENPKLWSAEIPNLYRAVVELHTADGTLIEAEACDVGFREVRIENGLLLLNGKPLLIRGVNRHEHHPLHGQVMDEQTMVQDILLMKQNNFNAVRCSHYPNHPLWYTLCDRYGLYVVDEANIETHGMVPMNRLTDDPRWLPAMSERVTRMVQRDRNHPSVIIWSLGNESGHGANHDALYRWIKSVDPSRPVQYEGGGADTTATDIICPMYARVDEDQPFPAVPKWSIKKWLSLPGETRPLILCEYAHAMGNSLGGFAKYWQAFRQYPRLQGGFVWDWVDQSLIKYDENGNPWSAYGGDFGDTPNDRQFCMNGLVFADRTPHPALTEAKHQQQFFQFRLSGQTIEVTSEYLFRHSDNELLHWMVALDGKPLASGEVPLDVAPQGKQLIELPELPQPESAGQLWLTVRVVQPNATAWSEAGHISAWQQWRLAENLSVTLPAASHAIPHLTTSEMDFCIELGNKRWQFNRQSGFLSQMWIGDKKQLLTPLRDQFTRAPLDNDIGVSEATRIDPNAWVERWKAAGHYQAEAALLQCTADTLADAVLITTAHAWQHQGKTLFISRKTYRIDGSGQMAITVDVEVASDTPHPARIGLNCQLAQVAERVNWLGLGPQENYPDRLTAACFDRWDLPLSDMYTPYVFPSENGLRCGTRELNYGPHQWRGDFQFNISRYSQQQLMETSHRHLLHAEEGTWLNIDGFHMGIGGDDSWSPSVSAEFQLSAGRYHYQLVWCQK

[8] = target: T2, Sentrin-specific protease 8 (Homo sapiens, UniProt Q96LD8); assay type: functional
T2 sequence (Q96LD8 whole entry): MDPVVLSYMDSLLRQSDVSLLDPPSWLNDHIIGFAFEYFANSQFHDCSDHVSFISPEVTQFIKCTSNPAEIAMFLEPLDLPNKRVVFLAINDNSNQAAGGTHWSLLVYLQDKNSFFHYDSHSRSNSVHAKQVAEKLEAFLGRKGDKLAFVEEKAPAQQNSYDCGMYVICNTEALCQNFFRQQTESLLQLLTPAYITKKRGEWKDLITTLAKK

[9] = target: T2, Sentrin-specific protease 8; assay type: functional; remark: listed apart in the source
[10] = test system: Streptococcus sp. 'group A'; test: growth inhibition of control SK(-) GAS strain, dose response, counter-screen for streptokinase expression inhibitor project, luminescence, kanamycin, BacTiterGlo, confirmation (AID 1900); assay type: functional, organism-based
[11] = inhibitors of intracellular T. cruzi replication, confirmation, NIH3T3 host cells, beta-gal luminescence (AID 2044); assay type: functional, cell-based;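 further: intracellular parasites grown in NIH/3T3 mouse fibroblasts as host cells; luminescent beta-galactosidase reporter signal from transgenic T. cruzi replicating inside host cells; inhibitors lower the luminescence signal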
Streptococcus = test: Group A Streptococcus viability loss, dose response, counter-screen for streptokinase expression inhibitor project, luminescence, BacTiterGlo (AID 1915); assay type: functional, organism-based;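 further: potency for reduction of bacterial viability or growth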
Vero = test: cells; assay type: functional; conditions: Chlorocebus sabaeus
[12] = human group III sPLA2 inhibitors, dose response, biochemical, QFRET, IC50 (AID 743457);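 further: green fluorescence rise as the enzyme cleaves BODIPY PC-A2 in liposomes; potency for inhibition of the enzyme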
[13] = target: T3, Methionyl-tRNA synthetase, putative (Trypanosoma brucei brucei, UniProt Q38C91); assay type: functional, Trypanosoma brucei brucei strain 927/4 GUTat10.1
T3 sequence (Q38C91 whole entry): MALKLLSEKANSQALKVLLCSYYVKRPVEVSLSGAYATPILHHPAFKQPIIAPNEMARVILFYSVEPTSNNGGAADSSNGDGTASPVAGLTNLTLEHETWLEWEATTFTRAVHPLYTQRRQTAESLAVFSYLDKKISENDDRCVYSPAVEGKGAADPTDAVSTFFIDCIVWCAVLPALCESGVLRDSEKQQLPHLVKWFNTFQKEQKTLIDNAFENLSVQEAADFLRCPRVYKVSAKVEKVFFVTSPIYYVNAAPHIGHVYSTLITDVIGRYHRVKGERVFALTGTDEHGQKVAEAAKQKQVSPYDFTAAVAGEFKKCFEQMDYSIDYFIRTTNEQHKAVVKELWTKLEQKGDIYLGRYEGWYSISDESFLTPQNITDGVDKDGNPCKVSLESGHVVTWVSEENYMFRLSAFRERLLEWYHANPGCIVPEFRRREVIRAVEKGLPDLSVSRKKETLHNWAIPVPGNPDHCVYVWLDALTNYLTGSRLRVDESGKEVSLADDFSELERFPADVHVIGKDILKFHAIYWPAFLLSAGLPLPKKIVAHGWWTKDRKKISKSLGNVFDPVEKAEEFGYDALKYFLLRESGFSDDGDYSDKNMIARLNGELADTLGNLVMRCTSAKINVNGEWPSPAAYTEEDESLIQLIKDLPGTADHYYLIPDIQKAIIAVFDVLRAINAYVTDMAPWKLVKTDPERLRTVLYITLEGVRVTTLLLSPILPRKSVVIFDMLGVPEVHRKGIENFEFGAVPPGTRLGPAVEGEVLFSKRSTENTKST

[14] = Counterscreen for inhibitors of Trypanosoma brucei methionyl tRNA synthetase (MetRS): Luminescence-based cell-based high throughput dose response assay to identify compounds that are cytotoxic to Jurkat human T lymphocyte cells.; assay type: functional
[15] = target: T3, Methionyl-tRNA synthetase, putative; assay type: functional, Trypanosoma brucei brucei strain 927/4 GUTat10.1; remark: listed apart in the source
[16] = target: T4, Histone-lysine N-methyltransferase NSD2 (Homo sapiens, UniProt O96028); assay type: biochemical
T4 sequence (O96028 whole entry): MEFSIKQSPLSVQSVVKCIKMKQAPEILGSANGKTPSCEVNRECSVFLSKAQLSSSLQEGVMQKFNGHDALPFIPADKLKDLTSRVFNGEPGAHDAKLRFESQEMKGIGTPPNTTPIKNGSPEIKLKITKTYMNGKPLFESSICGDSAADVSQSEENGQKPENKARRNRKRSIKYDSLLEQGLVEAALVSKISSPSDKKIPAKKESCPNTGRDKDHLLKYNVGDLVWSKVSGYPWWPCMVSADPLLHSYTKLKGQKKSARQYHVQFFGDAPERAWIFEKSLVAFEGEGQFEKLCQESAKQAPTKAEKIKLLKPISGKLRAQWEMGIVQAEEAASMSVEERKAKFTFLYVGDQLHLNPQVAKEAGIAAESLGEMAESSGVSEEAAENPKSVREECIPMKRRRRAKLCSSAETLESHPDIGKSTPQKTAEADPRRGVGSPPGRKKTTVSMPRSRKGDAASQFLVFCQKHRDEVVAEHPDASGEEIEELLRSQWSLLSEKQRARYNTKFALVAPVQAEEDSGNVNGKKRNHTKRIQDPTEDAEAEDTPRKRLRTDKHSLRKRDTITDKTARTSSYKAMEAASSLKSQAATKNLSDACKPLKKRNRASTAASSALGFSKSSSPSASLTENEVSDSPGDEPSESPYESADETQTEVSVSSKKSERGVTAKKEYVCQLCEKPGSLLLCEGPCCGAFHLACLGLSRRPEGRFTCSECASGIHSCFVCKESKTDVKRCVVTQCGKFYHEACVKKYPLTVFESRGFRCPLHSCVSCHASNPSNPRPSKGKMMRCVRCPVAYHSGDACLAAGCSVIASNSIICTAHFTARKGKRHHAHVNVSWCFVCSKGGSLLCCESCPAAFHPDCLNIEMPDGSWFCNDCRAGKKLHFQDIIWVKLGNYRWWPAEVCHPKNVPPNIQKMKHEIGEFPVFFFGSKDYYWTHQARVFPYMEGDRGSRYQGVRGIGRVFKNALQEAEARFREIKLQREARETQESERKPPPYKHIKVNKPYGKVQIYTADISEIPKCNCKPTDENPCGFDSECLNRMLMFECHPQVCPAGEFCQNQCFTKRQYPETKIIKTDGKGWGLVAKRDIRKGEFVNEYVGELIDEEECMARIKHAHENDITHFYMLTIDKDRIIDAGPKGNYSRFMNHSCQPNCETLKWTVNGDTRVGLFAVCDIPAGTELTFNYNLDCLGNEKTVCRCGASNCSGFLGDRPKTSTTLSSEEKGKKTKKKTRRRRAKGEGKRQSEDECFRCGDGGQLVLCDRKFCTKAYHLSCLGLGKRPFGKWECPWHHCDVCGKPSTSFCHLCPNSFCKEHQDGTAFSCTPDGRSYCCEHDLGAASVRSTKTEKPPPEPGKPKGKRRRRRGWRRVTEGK

[17] = HEp-2 cell cytotoxicity, dose response, cytotoxicity control for RSV inhibitor project, HTS (AID 2410); assay type: functional; conditions: human respiratory syncytial virus
[18] = target: FAD-linked sulfhydryl oxidase ALR (Homo sapiens, UniProt P55789); test: inhibitors of human ALR sulfhydryl oxidase, dose response, biochemical, H2O2 detection, luminescence, cherry-pick (AID 493248)
Chain of FAD-linked sulfhydryl oxidase ALR (P55789 whole entry): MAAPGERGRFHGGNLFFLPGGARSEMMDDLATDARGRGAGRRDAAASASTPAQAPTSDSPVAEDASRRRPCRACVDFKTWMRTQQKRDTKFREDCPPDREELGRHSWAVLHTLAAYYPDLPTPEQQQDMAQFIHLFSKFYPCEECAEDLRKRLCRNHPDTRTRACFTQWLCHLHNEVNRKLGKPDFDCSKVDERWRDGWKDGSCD

[19] = target: T5, Corticotropin-releasing factor receptor 2/Corticotropin-releasing factor-binding protein (Homo sapiens, UniProt P24387+Q13324); test: Dose Response confirmation of uHTS hits for small molecule antagonists of the CRF-binding protein and CRF-R2 receptor complex.; assay type: functional; conditions: read-out: IC50_Mean
T5 sequence (Q13324 whole entry): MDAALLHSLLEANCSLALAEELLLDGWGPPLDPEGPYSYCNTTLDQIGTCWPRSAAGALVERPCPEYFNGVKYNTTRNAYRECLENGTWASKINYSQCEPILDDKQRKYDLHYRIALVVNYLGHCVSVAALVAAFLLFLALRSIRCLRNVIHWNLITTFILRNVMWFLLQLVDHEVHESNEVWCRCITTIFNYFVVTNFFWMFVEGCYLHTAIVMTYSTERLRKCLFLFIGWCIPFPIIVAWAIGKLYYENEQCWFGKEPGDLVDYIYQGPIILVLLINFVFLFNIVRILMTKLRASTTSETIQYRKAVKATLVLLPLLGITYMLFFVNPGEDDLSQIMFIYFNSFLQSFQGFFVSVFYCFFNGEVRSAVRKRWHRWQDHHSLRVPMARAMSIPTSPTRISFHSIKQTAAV
T5 sequence (P24387 whole entry): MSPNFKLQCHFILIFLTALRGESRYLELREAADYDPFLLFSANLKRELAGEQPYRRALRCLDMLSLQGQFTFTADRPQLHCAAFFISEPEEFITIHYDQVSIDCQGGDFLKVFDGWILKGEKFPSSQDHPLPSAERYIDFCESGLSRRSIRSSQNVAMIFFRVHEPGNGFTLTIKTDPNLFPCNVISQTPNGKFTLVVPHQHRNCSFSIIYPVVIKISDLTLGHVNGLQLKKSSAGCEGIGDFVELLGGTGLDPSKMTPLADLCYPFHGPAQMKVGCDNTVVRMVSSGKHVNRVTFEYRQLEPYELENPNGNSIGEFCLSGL

[20] = target: T5, Corticotropin-releasing factor receptor 2/Corticotropin-releasing factor-binding protein; test: activators of CRF receptor 2 with binding protein – uHTS hits, confirmation (AID 602473); assay type: functional; conditions: read-out: EC50_Mean
[21] = CRF-BP/CRF-R2 complex antagonists, dose response, cell-based, uHTS hits, 384-well (AID 651639); assay type: functional, Homo sapiens; conditions: read-out: IC50_Mean

SMILES: CC(C)[C@H](NS(=O)(=O)c1ccc(F)cc1F)C(=O)N1CCC[C@H]1C(=O)NCCc1ccccc1Cl
- IC50 (cells [1]): > 29.9 µM (inactive)
- EC50 [2]: 2.89 µM (active)
- IC50 [3]: 4.65 µM (active)
- EC50 (cells [4]): > 29.9 µM (inactive)

SMILES: COc1ccccc1S(=O)(=O)N(C)C[C@H]1Oc2cc(C#CCC3CCCC3)ccc2S(=O)(=O)N([C@@H](C)CO)C[C@@H]1C
- AC50 (Paired box protein Pax-8): 7.59 µM (active)
- AC50 [5]: 52.2 µM (active)
- AC50 [6]: 17.1 µM (active)
- AC50 [7]: 62.2 µM (active)

SMILES: Cc1ccc(Nc2ccc(C(=O)NCCc3ccccc3)cn2)cc1
- IC50 (Beta-galactosidase): > 80 µM (inactive)

SMILES: COc1ccc(-c2nnc(SC)nc2-c2ccc(OC)c([N+](=O)[O-])c2)cc1[N+](=O)[O-]
- IC50 [8]: > 100 µM (inactive)
- IC50 [9]: 46.9 µM (active)

SMILES: O=C(c1ccc(Cl)cc1)N1CCN(S(=O)(=O)/C=C/c2ccccc2)CC1
- IC50 (Beta-galactosidase): > 80 µM (inactive)

SMILES: COc1cc(C(=O)NNC(=S)NC(=O)c2ccc(Cl)cc2)cc(OC)c1OC
- EC50 [10]: 822 nM (active)
- EC50 [11]: 756 nM (active)
- EC50 (Streptococcus): 2.17 µM (active)
- CC50 (Vero): > 25 µM (active)
- IC50 [12]: > 122 µM (inactive)

SMILES: Cc1cccc(OCCCC(=O)Nc2ccc(Br)cc2)c1
- IC50 [13]: 119 µM (inactive)
- IC50 [14]: 83.3 µM (inactive)
- IC50 [15]: 32 µM (inactive)

SMILES: CCN(CC)C1CCN(c2nc3nonc3nc2NCCOC)C1 (stereo not drawn)
- AC50 [16]: 14.4 µM (active)

SMILES: CN(CCc1ccccc1)C(=O)CC1C(=O)NCCN1Cc1ccccn1 (stereo not drawn)
- IC50 (cells [1]): > 29.9 µM (inactive)
- EC50 [2]: 3.05 µM (active)
- IC50 [3]: 9.93 µM (active)
- EC50 (cells [4]): > 29.9 µM (inactive)

SMILES: Cc1ccc(CNC(=O)C2CCN(S(=O)(=O)c3ccc4c(c3)OCCCO4)CC2)cc1
- IC50 (Beta-galactosidase): > 80 µM (inactive)

SMILES: Cc1nn(-c2ccccc2)c(C)c1/C=N/n1c(S)nnc1-c1ccccc1Br
- CC50 [17]: 23.2 µM (active)
- AC50 [18]: 3.44 µM (active)
- IC50 [19]: 3.92 µM (active)
- EC50 [20]: > 53 µM (inactive)
- IC50 [21]: 10.9 µM (active)

SMILES: CCOC(=O)N[C@@H](Cc1cccnc1)C(=O)N1CCC[C@H]1C(=O)NCCc1ccccc1Cl
- IC50 (cells [1]): > 29.9 µM (inactive)
- EC50 [2]: 3.16 µM (active)
- IC50 [3]: 8.93 µM (active)
- EC50 (cells [4]): > 29.9 µM (inactive)

SMILES: CC(NC(=O)COC(=O)c1ccc([N+](=O)[O-])s1)c1ccccc1 (stereo not drawn)
- IC50 [8]: 6.55 µM (active)
- IC50 [9]: 17.1 µM (active)

SMILES: CN1CCN(c2ncnc3c2cnn3C)CC1
- AC50 [16]: 13.3 µM (active)
